Measurements: US20250170139A1, “AZASETRON FOR THE TREATMENT OF SUDDEN SENSORINEURAL HEARING LOSS” (SENSORION, priority 2022, published 2025)

Assays:
[1] = test system: subjects suffering from sudden sensorineural hearing loss (SSNHL); assay: Phase 2b/3 study: change in pure tone audiometry (PTA) from baseline in affected ear; format: in vivo, human
Description: (§1) A randomized, double-blind, placebo-controlled, parallel-group phase 2b/3 study was conducted with the aim to assess efficacy and safety of (R)-azasetron in subjects suffering from sudden sensorineural hearing loss. Treatment was administered for 4 weeks (i.e., 28 days) and the study was concluded with an 8-week follow-up at day 84.
(§2) Subjects were included in the study if they presented with sudden sensorineural hearing loss (SSNHL) and met the following criteria: • male or female, • aged at least 18 years old, • subjects with unilateral idiopathic SSNHL or unilateral/bilateral acute acoustic trauma leading to SSNHL defined by both: • at least one hearing threshold of 50 dB or more amongst the 3 most affected contiguous frequencies on pure tone audiometric air conduction testing performed 24 hours or less prior to first study drug intake, and • mean hearing loss of 30 dB or more, averaged across the 3 most affected contiguous frequencies on pure tone audiometric air conduction testing performed 24 hours or less prior to first study treatment, compared with the unaffected contralateral ear or reference values from a pre-existing audiogram (dated less than 2 years) • subjects with sudden hearing loss with onset within 96 hours prior to first study drug intake.
As indicated above, hearing loss was determined with pure tone audiometry (PTA) or pure tone audiometric testing, in particular with pure tone audiometric air conduction testing.
In the present study, pure tone air- and bone-conduction hearing thresholds were determined for each ear (best ear at first) at 0.25, 0.5, 1, 2, 3, 4, 6, and 8 kHz for air conduction and at 0.5, 1, 2, 3, 4 kHz for bone conduction, using the descending method of limits (modified Hughson Westlake procedure as follows: initial descent towards threshold is accomplished in 10-dB steps. Beginning with the first nonresponse, level is increased by 5-dB for each non-response and decreased by 10-dB after each correct detection response). The hearing threshold was defined as the lowest audible level, measured twice out of three presentations to the subject.
The baseline pure tone audiometry test was defined as the last test performed at site within 24 hours prior to the first study drug administration. The PTA was expressed as the average of the hearing threshold (in dB) of the 3 most affected contiguous test frequencies (air conduction). Therefore, a higher PTA corresponds to a higher hearing threshold and thus to a poorer hearing. Conversely, a lower PTA corresponds to a lower hearing threshold and thus to a better hearing.
The hearing loss was defined as the difference between the PTA expressed as the average of the hearing threshold (in dB) at the 3 most affected contiguous test frequencies (air pure tone average) and the corresponding PTA expressed as the average hearing threshold of the contralateral ear or values from a pre-existing audiogram (dated less than 2 years) for the same frequencies (mandatory for bilateral acute acoustic trauma). The contiguous frequencies used to determine the PTA at baseline remained fixed for all subsequent evaluations. In case of bilateral acute acoustic trauma leading to sudden sensorineural hearing loss, the most affected ear according to the inclusion criteria was considered for the analysis. If both ears were equally affected, the right ear was considered.
134 subjects were assessed for eligibility according to the criteria listed above. […]

[2] = test system: subjects suffering from sudden sensorineural hearing loss (SSNHL); assay: Phase 2b/3 study: speech discrimination test, change in word recognition score (WRS) from baseline; format: in vivo, human; details: SENS-401 29 mg/BID
Description: as §1, §2
134 subjects were assessed for eligibility according to the criteria listed above. 115 subjects were randomized with a ratio 1:1:1 in the three following groups (i.e., treatment arms): • 38 subjects were included in the group administered for 28 days (i.e., 4 weeks) with placebo, • 38 subjects were included in the group administered for 28 days (i.e., 4 weeks) with a “low” dose of (R)-azasetron, defined as a total daily dose of 58 mg of (R)-azasetron (corresponding to a daily dose of 40 mg free base equivalent); and • 39 subjects were included in the group administered for 28 days (i.e., 4 weeks) with a “high” dose of (R)-azasetron, defined as a total daily dose of 87 mg of (R)-azasetron (corresponding to a daily dose of 60 mg free base equivalent).
Subjects were administered placebo or (R)-azasetron (also designated as SENS-401) for 28 days (i.e., 4 weeks). (R)-azasetron was administered orally twice a day either at a dose of 29 mg/BID (bis in die) or at a dose of 43.5 mg/BID (corresponding to a total daily dose of 40 mg and 60 mg free base equivalent, respectively).
Subjects included in the study were monitored with a first visit at day −4 to day 0 (screening), followed by a visit at day 1 (D1-randomization and inclusion day), day 7 (D7, ±2 days), day 14 (D14, ±2 days), day 28 (D28±3 days−end of treatment), and day 84 (D84±3 days-follow-up visit marking the end of study). Monitoring included audiometric tests (PTA), speech audiometry, numerical rating scales and questionnaires. Additionally, subjects included in the study were closely monitored for adverse events throughout the study.
Additionally, the efficacy of SENS-401 was also assessed by conducting speech audiometry, in particular by conducting a speech discrimination test (also known as word recognition test) to determine a word recognition score (WRS).
Speech discrimination or word recognition is the ability to repeat correctly an open set of monosyllabic words at supra threshold intensity (for example at 60 dB or at 80 dB). The word recognition score (WRS) is thus the percentage of test words correctly repeated by the subject. The test is administered in a quiet room without any competing noise. […]

[3] = day 28, SENS-401 high 43.5 mg/BID, subpopulation PTA at baseline ≥80 dB (idiopathic SSNHL, corticoids)
[4] = day 28, SENS-401 high 43.5 mg/BID, subpopulation PTA at baseline ≥90 dB (idiopathic SSNHL, corticoids)
[5] = day 28, SENS-401 low 29 mg/BID (40 mg/day free base equivalent), ITT overall study population, idiopathic SSNHL who received corticoids
[6] = day 28, SENS-401 low 29 mg/BID, subpopulation PTA at baseline ≥80 dB & initial frequency range ≤2000 Hz (idiopathic SSNHL, corticoids)
[7] = day 84, SENS-401 high 43.5 mg/BID (60 mg/day free base equivalent), overall study population, idiopathic SSNHL who received corticoids
[8] = day 84, SENS-401 high 43.5 mg/BID, subpopulation PTA at baseline ≥80 dB (idiopathic SSNHL, corticoids)
[9] = day 84, SENS-401 high 43.5 mg/BID, subpopulation PTA at baseline ≥90 dB (idiopathic SSNHL, corticoids)
[10] = day 84, SENS-401 high 43.5 mg/BID, subpopulation initial hearing loss ≥91 dB (ASHA Profound; idiopathic SSNHL, corticoids)
[11] = day 84, SENS-401 low 29 mg/BID (40 mg/day free base equivalent), ITT overall study population
[12] = day 84, SENS-401 low 29 mg/BID (40 mg/day free base equivalent), ITT overall study population, idiopathic SSNHL who received corticoids
[13] = day 84, SENS-401 low 29 mg/BID, subpopulation PTA at baseline ≥80 dB & initial frequency range ≤2000 Hz (idiopathic SSNHL, corticoids)
[14] = day 84, SENS-401 low 29 mg/BID, subpopulation initial frequency range ≤2000 Hz (of overall study population)
[15] = day 84, SENS-401 low 29 mg/BID, subpopulation initial hearing loss ≥91 dB (ASHA Profound; idiopathic SSNHL, corticoids)
[16] = day 84, SENS-401 low 29 mg/BID, subpopulation vertigo at baseline (idiopathic SSNHL, corticoids)

CN1C(=O)COc2c(C(=O)N[C@H]3CN4CCC3CC4)cc(Cl)cc21 [SENS-401, (R)-azasetron besylate]
ΔPTA SENS-401 vs placebo ([1]; day 28, SENS-401 29 mg/BID (40 mg/day free base equivalent), subpopulation PTA at baseline ≥80 dB (idiopathic SSNHL, corticoids), in dB): −15.2188 | ΔPTA SENS-401 vs placebo ([1]; day 28, SENS-401 29 mg/BID (40 mg/day free base equivalent), subpopulation PTA at baseline ≥90 dB (idiopathic SSNHL, corticoids), in dB): −13.9239 | ΔPTA SENS-401 vs placebo ([1]; day 28, SENS-401 29 mg/BID, subpopulation hearing loss at baseline ≥91 dB (idiopathic SSNHL, corticoids)): −19.8922 dB | ΔPTA SENS-401 vs placebo ([1]; day 28, SENS-401 29 mg/BID, subpopulation vertigo at baseline (idiopathic SSNHL, corticoids), in dB): −14.0995 | ΔPTA SENS-401 vs placebo ([1]; day 28, SENS-401 43.5 mg/BID, subpopulation hearing loss at baseline ≥91 dB (idiopathic SSNHL, corticoids), in dB): −14.8893 | Mean change in PTA from baseline ([1]; day 28, SENS-401 high 43.5 mg/BID oral (60 mg/day free base equivalent) 28 days, ITT overall study population, idiopathic SSNHL who received corticoids): −41.8636 dB | Mean change in PTA from baseline [1, 3]: −54.4635 dB | ΔPTA SENS-401 vs placebo [1, 3]: −17.7765 dB | Mean change in PTA from baseline [1, 4]: −53.6800 dB | ΔPTA SENS-401 vs placebo [1, 4]: −23.2680 dB | Mean change in PTA from baseline [1, 5]: −42.0761 dB | ΔPTA SENS-401 vs placebo [1, 5]: −4.1236 dB | Mean change in PTA from baseline [1, 6]: −59.0918 dB | ΔPTA SENS-401 vs placebo [1, 6]: −21.7623 dB | ΔPTA SENS-401 vs placebo ([1]; day 84, SENS-401 29 mg/BID (40 mg/day free base equivalent), subpopulation PTA at baseline ≥80 dB (idiopathic SSNHL, corticoids), in dB): −19.4991 | ΔPTA SENS-401 vs placebo ([1]; day 84, SENS-401 29 mg/BID (40 mg/day free base equivalent), subpopulation PTA at baseline ≥90 dB (idiopathic SSNHL, corticoids), in dB): −19.0242 | Mean change in PTA from baseline [1, 7]: −46.3161 dB | ΔPTA SENS-401 vs placebo [1, 7]: −9.0984 dB | Mean change in PTA from baseline [1, 8]: −61.2123 dB | ΔPTA SENS-401 vs placebo [1, 8]: −25.6472 dB | Mean change in PTA from baseline [1, 9]: −57.7398 dB | ΔPTA SENS-401 vs placebo [1, 9]: −28.6788 dB | Mean change in PTA from baseline [1, 10]: −44.9102 dB | ΔPTA SENS-401 vs placebo [1, 10]: −26.2796 dB | Mean change in PTA from baseline [1, 11]: −32.4686 dB | ΔPTA SENS-401 vs placebo [1, 11]: −7.0694 dB | Mean change in PTA from baseline [1, 12]: −45.9263 dB | ΔPTA SENS-401 vs placebo [1, 12]: −8.7086 dB | Mean change in PTA from baseline [1, 13]: −61.7417 dB | ΔPTA SENS-401 vs placebo [1, 13]: −26.6903 dB | Mean change in PTA from baseline [1, 14]: −44.6900 dB | ΔPTA SENS-401 vs placebo [1, 14]: −11.6405 dB | Mean change in PTA from baseline [1, 15]: −46.6683 dB | ΔPTA SENS-401 vs placebo [1, 15]: −28.0377 dB | Mean change in PTA from baseline [1, 16]: −44.8233 dB | ΔPTA SENS-401 vs placebo [1, 16]: −21.8040 dB | ΔWRS SENS-401 vs placebo ([2]; day 28, subpopulation PTA at baseline ≥70 dB (of overall study population)): 12.9673% | ΔWRS SENS-401 vs placebo ([2]; day 28, WRS assessed at 60 dB, subpopulation vertigo at baseline): 35.5287% | ΔWRS SENS-401 vs placebo ([2]; day 28, WRS at 60 dB, overall study population): 8.8241% | ΔWRS SENS-401 vs placebo ([2]; day 84, WRS assessed at 60 dB, subpopulation vertigo at baseline): 53.1273% | change in WRS from baseline (effect vs placebo, in words) ([2]; day 84, WRS at 80 dB, subpopulation vertigo at baseline): significant beneficial effect
